Experimental data taken from patent US20250382640A1, “LIPID NANOPARTICLES FOR DELIVERY OF NUCLEIC ACIDS” (Juno Therapeutics, Inc., priority 2022, published 2025).
Entries after “also recorded” stand apart in the source; their conditions may differ.

What was measured:
[1] = DNA loading into LNPs, Quant-iT PicoGreen dsDNA assay; format: physicochemical; settings: Example 4a, Table E14 formulations
Protocol: The resulting LNPs were sized by dynamic light scattering (DLS) before being stored overnight at 5 Celsius. Following overnight incubation, the LNPs were again sized by DLS, and then sterile filtered in a biosafety cabinet. LNPs having an Z-average particle size greater than 200 nm in diameter were filtered using a 0.45 µm filter. All other LNPs were filtered using a 0.2 µm filter. Following sterile filtration, the LNPs were sized a final time by DLS. The LNPs were also assessed for DNA loading, as determined by the Quant-iT™ PicoGreen™ dsDNA broad range DNA assay. Percent DNA loading was calculated as 100×(signal of sample with Triton-X−signal of sample in DI water)/(signal of sample with Triton-X).

primary human T cells = assay: Transient transfection of activated primary human T cells with DNA LNPs, GFP expression by flow cytometry; format: cell-based
Protocol: Separate compositions of CD4+ and CD8+ cells were selected by immunoaffinity-based enrichment from isolated PBMCs from leukapheresis samples from four healthy human donors. The selected cell compositions were cryopreserved, subsequently thawed and combined in culture at a 1:1 ratio of viable CD4+ to viable CD8+ cells. The combined CD4+ and CD8+ cell composition was then incubated for 48 hours with anti-CD3/CD28 beads (1:1 cell-to-bead ratio) in media containing recombinant IL-2, IL-7, and IL-15 to activate (stimulate) the T cells. […] The cells were cultured in media supplemented with 1 μg/mL of apolipoprotein E4 (ApoE4) to support cellular uptake of the LNPs.
Cells were analyzed by flow cytometry 24 to 48 hours after transfection to determine cell viability and transient GFP expression. Cell viability was determined by quantification of dead cells using SYTOX™ blue dead cell stain and GFP expression was determined via flow cytometry.
Formulations as described in Table E4 were used to transiently transfect human T cells at a 6.0 μg/mL DNA dosing concentration (final concentration with cells), and the effects of varying the described parameters on cell viability and transfection efficiency of T cells were assessed. A combined CD4+ and CD8+ T cell composition was generated and activated substantially as described in Example 2, and incubated in media with […] ApoE4 and LNPs generated from the various formulations for approximately 24 hours at 37° Celsius, 5% CO2, to allow for transfection. Following incubation, cells were assessed for viability and transfection efficiency as described in Example 2. Increasing ionizable lipid mass fraction percentage decreased transfection efficiency (p<0.05; left panel of FIGS. 6A), while there was no statistically significant effect of helper lipid or PEG lipid mass fraction percentage on transfection efficiency (middle and right panels, respectively, of FIG. 6A).

Row | SMILES | DNA loading [1] | transfection efficiency (primary human T cells; Example 4a, alkyl chain linker length, Table E14 formulations) | transfection efficiency (primary human T cells; Example 4b, heterocyclic headgroup, Table E16 formulations) | transient transfection in T cells (GFP expression) (primary human T cells; F9 and F9A formulations with various ionizable lipids, 24 hours)
1 | CCCCC/C=C\C/C=C\CCCCCCCCC1(CCCCCCCC/C=C\C/C=C\CCCCC)OCC(CCN(C)C)O1 (stereo not shown) [DLin-KC2-DMA, 2,2-dilinoleyl-4-dimethylaminoethyl-[1,3]-dioxolane] | consistently high DNA loading | higher transfection efficiency compared to the other lipids; also recorded: highest transfection efficiency | highest | –
2 | CCCCC/C=C\C/C=C\CCCCCCCC(=O)OCCCCN(CCCCOC(=O)CCCCCCC/C=C\C/C=C\CCCCC)CCCCC1NC(=O)C(CCCCN(CCCCOC(=O)CCCCCCC/C=C\C/C=C\CCCCC)CCCCOC(=O)CCCCCCC/C=C\C/C=C\CCCCC)NC1=O (stereo not shown) [OF-C4-Deg-Lin] | – | – | – | highest levels of transient transfection
